The source of these data is ChEMBL document CHEMBL4219225, “Practical application of ligand efficiency metrics in lead optimisation” (Bioorg Med Chem, 2018).

Series [1] has as its target Voltage-gated inwardly rectifying potassium channel KCNH2 (Homo sapiens, UniProt Q12809). The experiment in a line: Inhibition of human ERG.
Series [2] addresses T1, Glucose-dependent insulinotropic receptor (Homo sapiens, UniProt Q8TDV5).
T1 sequence (Q8TDV5 whole entry): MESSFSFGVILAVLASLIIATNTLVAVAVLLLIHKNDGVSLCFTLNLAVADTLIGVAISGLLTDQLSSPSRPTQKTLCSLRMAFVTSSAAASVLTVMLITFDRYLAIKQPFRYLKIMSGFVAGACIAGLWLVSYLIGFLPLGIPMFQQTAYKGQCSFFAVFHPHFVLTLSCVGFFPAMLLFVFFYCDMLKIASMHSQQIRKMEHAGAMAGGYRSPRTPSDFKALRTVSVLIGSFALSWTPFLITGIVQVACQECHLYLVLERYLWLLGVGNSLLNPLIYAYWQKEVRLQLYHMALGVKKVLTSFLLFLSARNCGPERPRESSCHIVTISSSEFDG
The experiment in a line: Agonist activity at GPR119 (unknown origin). It counts as functional.

The nature of series [3]: Solubility of the compound at pH 7.4. It counts as physicochemical. As to conditions: buffer.
Series [4] in a line: Apparent permeability in MDCK cells. It counts as ADME, cell-based, Canis lupus familiaris. As to conditions: dog.

pEC50, pIC50: −log10 of the molar value. In brackets after ≈: the same amount, converted by molar mass.

Sequence of Voltage-gated inwardly rectifying potassium channel KCNH2 (Q12809 whole entry): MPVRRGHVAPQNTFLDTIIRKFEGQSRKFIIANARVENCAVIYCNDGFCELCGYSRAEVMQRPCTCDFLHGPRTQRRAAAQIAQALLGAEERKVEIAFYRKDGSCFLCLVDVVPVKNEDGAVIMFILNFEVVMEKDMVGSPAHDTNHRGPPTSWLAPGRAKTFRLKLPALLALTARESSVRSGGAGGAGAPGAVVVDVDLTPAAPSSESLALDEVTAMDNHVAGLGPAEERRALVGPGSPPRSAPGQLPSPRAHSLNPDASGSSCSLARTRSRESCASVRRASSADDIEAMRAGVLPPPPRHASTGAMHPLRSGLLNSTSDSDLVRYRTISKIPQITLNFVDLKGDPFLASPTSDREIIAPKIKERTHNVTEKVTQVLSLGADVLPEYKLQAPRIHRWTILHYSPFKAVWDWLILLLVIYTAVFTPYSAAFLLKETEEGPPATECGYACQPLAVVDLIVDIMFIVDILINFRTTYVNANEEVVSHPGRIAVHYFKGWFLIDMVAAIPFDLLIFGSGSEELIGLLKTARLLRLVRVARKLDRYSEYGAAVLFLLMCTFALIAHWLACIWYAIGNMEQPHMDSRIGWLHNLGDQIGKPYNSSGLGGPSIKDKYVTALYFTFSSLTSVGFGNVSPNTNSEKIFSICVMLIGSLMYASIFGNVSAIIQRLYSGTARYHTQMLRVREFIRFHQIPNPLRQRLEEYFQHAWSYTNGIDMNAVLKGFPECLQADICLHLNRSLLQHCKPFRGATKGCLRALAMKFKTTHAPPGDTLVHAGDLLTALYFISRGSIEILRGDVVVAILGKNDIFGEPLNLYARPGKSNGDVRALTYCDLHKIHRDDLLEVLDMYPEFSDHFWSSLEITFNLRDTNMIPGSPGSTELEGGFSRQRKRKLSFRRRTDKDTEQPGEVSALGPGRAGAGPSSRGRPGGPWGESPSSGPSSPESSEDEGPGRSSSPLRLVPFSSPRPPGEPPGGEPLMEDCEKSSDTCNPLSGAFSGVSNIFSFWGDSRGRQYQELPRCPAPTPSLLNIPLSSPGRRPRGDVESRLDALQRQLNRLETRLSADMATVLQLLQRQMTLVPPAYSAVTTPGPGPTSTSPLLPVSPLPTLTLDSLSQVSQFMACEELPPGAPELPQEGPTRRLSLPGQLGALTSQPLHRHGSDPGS

The pIC50 is −log10 of the IC50, conventionally taken in molar units. The term pEC50 denotes −log10 of the EC50, conventionally taken in molar units. Read a high pEC50 as a low EC50. One may read the solubility as the dissolved amount per volume that the medium holds. Lower therefore signals a poorly soluble substance. In series [1], `N#Cc1cnccc1COc1cnc(N2CCN(c3nnc(C(F)(F)F)o3)CC2)nc1` gave a pIC50 of 4.70. The pEC50 in series [2] is 7.60. Further, the concentration in solution in series [3] (solubility) was 120 µM (≈ 51.9 µg/mL).

For orientation: Papp means the rate of passage across a membrane or cell layer, normalised by area and donor concentration. With `Cc1nc(C)c(-c2ccc(-c3ccc(CC(=O)O)cc3)c(Cl)c2)nc1C(N)=O`, the Papp in series [4] is 7.4 ×10⁻⁶ cm/s.

As for `N#Cc1cnccc1COc1cnc(N2CCN(c3noc(C(F)(F)F)n3)CC2)nc1`, the pIC50 in series [1] was 5.20. The pEC50 in series [2] was 8.70. The same compound gave a solubility in series [3] of 3.1 µM (≈ 1.34 µg/mL).

As to `Cc1nc(C)c(-c2ccc(-c3ccc([C@H](C)C(=O)O)cc3Cl)c(F)c2)nc1C(N)=O`, the apparent permeability coefficient (Papp) in series [4] was 14 ×10⁻⁶ cm/s.

With `N#Cc1cnccc1COc1cnc(N2CCN(c3nc(C(F)(F)F)no3)CC2)nc1`, in series [1], the pIC50 is 5.20. Moreover, the pEC50 in series [2] was 8.30. In series [3], this compound came in with a solubility of 4800 µM (≈ 2080 µg/mL).
